Laboratory results: paper PMC4363317, “A Highly Efficient Recombinant Laccase from the Yeast Yarrowia lipolytica and Its Application in the Hydrolysis of Biomass” (PLoS ONE, 2015)

The compounds below were run against T1, YlLac (Yarrowia lipolytica, UniProt G1C1M2) (assay: biochemical). Settings: 0.1 mM; 0.1 mM ABTS, pH 4.8; read-out: % of control remaining.
T1 construct: ORF 519 residues incl; 19-residue native signal (abstract instead calls the mature protein 519 aa); expressed without native signal behind alpha-factor signal (pPICZalphaA-Wsp-YlLac) in Pichia pastoris KM71H; forward primer GCCATTGGCCCGGTGACC encodes AIGPVT; monomer, glycosylated ~67-68 kDa, ~55 kDa after endoH
T1 sequence (G1C1M2 20-519): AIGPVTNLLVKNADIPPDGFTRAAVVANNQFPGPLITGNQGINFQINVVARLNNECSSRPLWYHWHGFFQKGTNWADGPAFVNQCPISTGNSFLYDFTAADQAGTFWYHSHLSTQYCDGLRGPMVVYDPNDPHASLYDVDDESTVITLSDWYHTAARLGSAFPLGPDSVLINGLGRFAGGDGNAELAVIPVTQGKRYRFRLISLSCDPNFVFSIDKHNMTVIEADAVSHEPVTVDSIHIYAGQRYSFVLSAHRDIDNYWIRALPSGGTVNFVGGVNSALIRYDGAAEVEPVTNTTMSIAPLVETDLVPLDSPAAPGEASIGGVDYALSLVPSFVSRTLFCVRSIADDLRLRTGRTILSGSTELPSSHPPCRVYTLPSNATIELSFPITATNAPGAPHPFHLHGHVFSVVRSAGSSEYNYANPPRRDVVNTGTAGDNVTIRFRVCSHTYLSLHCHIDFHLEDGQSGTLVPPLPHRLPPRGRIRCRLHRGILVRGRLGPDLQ
Parameters: spectrophotometric ABTS oxidation by purified recombinant YlLac with inhibitor, 50 mM sodium acetate pH 4.8
Description: Sodium dodecyl sulfate polyacrylamide gel electrophoresis (SDS-PAGE; 12% w/v polyacrylamide) was performed as described by Laemmli. The native molecular mass was determined by applying samples to a calibrated Sephacryl S-300 HR 16/60 column as recommended by the supplier (GE Healthcare). Purified recombinant YlLac was treated with endoglycosidase H (NEB, Biolabs UK) according to the manufacturer's protocol. YlLac (6 μg) in 1× glycoprotein denaturing buffer was boiled for 10 min. After cooling, 1 μl of endoglycosidase H was added and the sample was incubated at 37°C overnight. The product of endoglycosidase H treatment was analyzed by SDS-PAGE. Protein bands were stained with Coomassie brilliant blue R-250 (Sigma). The zymogram process was carried out using native PAGE, and the enzyme band was visualized by incubating the gel in 50 mM sodium acetate buffer (pH 4.8) containing 0.1 mM ABTS and 2,6-DMP at room temperature. The UV-vis absorption spectrum of purified laccase was recorded at 25°C on a spectrophotometer (Shimadzu, model UV-1800, Tokyo) in 2 cm path length quartz cells. The effects of pH on laccase activity for various substrates were tested at pH 2–6 in 50 mM citrate-phosphate buffer (pH 2–4) or 50 mM sodium-acetate buffer (pH 4–6). The activity of purified laccase towards the ABTS substrate was examined at 20–80°C at the optimal pH value. The rates of substrate oxidation were determined by measuring the absorbance increases at the respective wavelengths, and the molar extinction coefficients (ε) were obtained from the literature. The effects of various inhibitors and metal ions on the activity of purified laccase were determined using assay mixtures (2 ml) containing appropriately diluted enzyme, 50 mM sodium acetate buffer (pH 4.8), and 0.1 mM ABTS with various concentrations of inhibitors or 5 mM metal ions. Laccase activity in the absence of inhibitor or metal ions was defined as 100%. Measurements were carried out in triplicate. K m and V max values of purified YlLac were determined by measuring the activity of the enzyme with various concentrations (0.01–0.1 mM) of ABTS and 2,6-DMP substrates at the optimal condition in each case. Ki A number of compounds were examined for their effects on YlLac activity, including small ions [compound left out], sulfhydryl group-containing redox reagents (L-cysteine and dithiothreitol, […]), denaturants (thiourea), and a chelator (EDTA) (S2 Table). […] Enzyme activity was not observed in the presence of 0.1 mM NaN3. SDS caused partial inhibition and the metal chelating agent EDTA caused no inhibition. Metal ions such as Cr^3+, Mg^2+, and Mn^2+ inhibited 25%, 24%, and 24% of YlLac activity, respectively.

Point of comparison: O[C@@H](CS)[C@@H](O)CS (racemic) [Dithiothreitol], remaining activity at 100 µM 61.1 ± 2.4%. Against it:
- NC(N)=S [Thiourea] — higher, 91.1 ± 2.1%
- N[C@@H](CS)C(=O)O [l-Cysteine] — higher, 76.6 ± 2.1%

Same assay, conditions: 0.5 mM; 0.1 mM ABTS, pH 4.8; read-out: % of control remaining

Point of comparison: NC(N)=S [Thiourea], remaining activity at 500 µM 42.2 ± 2%. Against it:
- O[C@@H](CS)[C@@H](O)CS (racemic) [Dithiothreitol] — lower, 2 ± 0.4%
- N[C@@H](CS)C(=O)O [l-Cysteine] — lower, 11.1 ± 1.5%

Same assay, conditions: 1 mM; 0.1 mM ABTS, pH 4.8; read-out: % of control remaining

Point of comparison: N[C@@H](CS)C(=O)O [l-Cysteine], remaining activity at 1000 µM 0%. Against it:
- O[C@@H](CS)[C@@H](O)CS (racemic) [Dithiothreitol] — the same, 0%
- NC(N)=S [Thiourea] — higher, 12.3 ± 1.5%
